≈ marks a conversion by molar mass, not a printed value.
Experiments:
[1] = tested on: E. coli BL21(DE3); assay: disc diffusion assay; assay type: cell-based; details: 0.15 μmol per 6 mm disc
[2] = tested on: E. coli D22; assay: disc diffusion assay; assay type: cell-based; details: 0.15 μmol per 6 mm disc
[3] = tested on: K. pneumoniae ATCC 700603; assay: disc diffusion assay; assay type: cell-based, Klebsiella pneumoniae; details: 0.15 μmol per 6 mm disc
Experimental: In the performed disc diffusion assays, indole derivatives (S)-13h, (S)-13i, and (S)-13j caused promising halos of growth inhibition.
The disc diffusion assays against E. coli TOP10 (Thermo Fisher, Waltham, USA), E. coli ATCC 35218, K. pneumoniae ATCC 700603, and P. aeruginosa ATCC 27853 were performed as follows: the bacteria were grown overnight on a Columbia blood agar plate (Oxoid, Basingstoke, UK), and one colony was suspended in sterile saline to yield a suspension of 0.5 McFarland standard. Using a sterile swab, the suspension was spread evenly onto Mueller–Hinton agar (Oxoid, Basingstoke, UK). 0.15 μmol of each compound (dissolved in 10 μL DMSO) was applied onto circular 6 mm diameter filter paper disks, which were then placed on the agar. After incubating the agar plates for 20 h at 37 °C, the diameter of the zone of growth inhibition was measured for each compound.

[4] = tested on: E. coli BL21(DE3); assay: MIC, broth microdilution; assay type: cell-based; details: 20 h, 37 °C, LB; for MIC: Escherichia coli
Outline: (§1)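 LB broth microdilution, inoculum 5 × 10^5 cfu mL^–1, 5% DMSO, 2-fold compound series 64–0.016 μg mL^–1 final, incubated 20 h at 37 °C. MIC was the lowest concentration preventing visible growth, from at least three runs on separate days.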

[5] = tested on: E. coli D22; assay: MIC, broth microdilution; assay type: cell-based; details: Escherichia coli, 20 h, 37 °C, LB
Outline: as §1

[6] = biological target: T1, LasB (Pseudomonas aeruginosa, UniProt Q02RJ6); assay: FRET-based LasB in vitro inhibition assay; assay type: biochemical, P. aeruginosa PA14; details: for inhibition at 20 µM: read-out: LasB Inhibition at 20 μM
T1 construct: The elastase LasB of P. aeruginosa is a secreted metalloprotease; endogenous in cells; host or cells: P. aeruginosa PA14 culture supernatant
Outline: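 FRET-based inhibition assay using LasB purified from P. aeruginosa PA14 culture supernatant; fluorescence read-out.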

[7] = biological target: T2, E. coli LpxC C63A (Escherichia coli, UniProt P0A725, C63A); assay: fluorescence-based E. coli LpxC C63A enzyme inhibition assay; assay type: biochemical; details: Ki E. coli LpxC C63A, from IC50 via Cheng–Prusoff
T2 construct: made in house; host or cells: E. coli BL21(DE3)
Outline: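 Purified E. coli LpxC C63A (15 nM) was incubated with 25 µM UDP-3-O-[(R)-3-hydroxymyristoyl]-GlcNAc in MES pH 6.0 buffer (2% DMSO) for 30 min at 37 °C. Compounds ranged from 20 nM to 20 µM. Product was derivatized with o-phthaldialdehyde/2-mercaptoethanol and read by fluorescence (ex 340/em 460), with IC50 converted to Ki via Cheng–Prusoff.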

T1 sequence (Q02RJ6 198-498): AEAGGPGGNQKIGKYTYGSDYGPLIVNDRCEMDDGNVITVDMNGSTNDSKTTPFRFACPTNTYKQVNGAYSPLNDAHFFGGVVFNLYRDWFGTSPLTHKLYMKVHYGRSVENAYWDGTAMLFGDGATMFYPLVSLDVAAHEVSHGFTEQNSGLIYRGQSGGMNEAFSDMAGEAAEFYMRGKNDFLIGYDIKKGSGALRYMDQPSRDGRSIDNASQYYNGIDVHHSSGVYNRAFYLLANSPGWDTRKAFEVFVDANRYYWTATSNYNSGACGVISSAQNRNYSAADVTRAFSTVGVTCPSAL
T2 sequence (P0A725 whole entry C63A): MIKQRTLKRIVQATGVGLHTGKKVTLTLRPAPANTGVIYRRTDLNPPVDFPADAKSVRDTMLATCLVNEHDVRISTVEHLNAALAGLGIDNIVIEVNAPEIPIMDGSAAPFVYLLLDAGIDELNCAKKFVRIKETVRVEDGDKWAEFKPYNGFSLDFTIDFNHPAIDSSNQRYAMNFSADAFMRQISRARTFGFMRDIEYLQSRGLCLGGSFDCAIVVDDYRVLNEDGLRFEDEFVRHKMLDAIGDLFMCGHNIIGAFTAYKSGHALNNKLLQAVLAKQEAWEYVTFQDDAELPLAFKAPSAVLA

O=C(NC[C@H](OCc1ccc(C#Cc2ccc(CN3CCOCC3)cc2)cc1)C(=O)NO)c1cc(-c2ccccc2)[nH]n1 [(S)-13m]
Inhibition zone E. coli BL21(DE3) [1]: 11.3 ± 1.6 mm | Inhibition zone E. coli D22 [2]: 24.5 ± 1.8 mm | Inhibition zone K. pneumoniae ATCC 700603 [3]: <6 mm | MIC E. coli BL21(DE3) [4]: 8.0 µg/mL (≈ 13.8 µM) | MIC [4]: 4 to 8 µg/mL (≈ 6.9 to 13.8 µM) | MIC [5]: 0.063 µg/mL (≈ 0.109 µM) | LasB Inhibition at 20 μM [6]: little to no inhibitory activity | inhibition at 20 µM [6]: < 10% | Ki [7]: 85.2 ± 21.7 nM

O=C(NC[C@H](OCc1ccc(C#Cc2ccc(CN3CCOCC3)cc2)cc1)C(=O)NO)c1cnc2ccccc2c1 [(S)-13f]
Inhibition zone E. coli BL21(DE3) [1]: 11.5 ± 2.1 mm | Inhibition zone E. coli D22 [2]: 29.0 ± 1.0 mm | Inhibition zone K. pneumoniae ATCC 700603 [3]: <6 mm | MIC [4]: > 16 µg/mL | MIC [5]: 0.25 µg/mL (≈ 0.443 µM) | LasB Inhibition at 20 μM [6]: little to no inhibitory activity | inhibition at 20 µM [6]: < 10% | Ki [7]: 117 ± 21 nM

O=C(NC[C@H](OCc1ccc(C#Cc2ccc(CN3CCOCC3)cc2)cc1)C(=O)NO)c1c[nH]c2ccccc12 [(S)-13h]
Inhibition zone E. coli BL21(DE3) [1]: 19.7 ± 1.6 mm | Inhibition zone E. coli D22 [2]: 29.3 ± 1.6 mm | Inhibition zone K. pneumoniae ATCC 700603 [3]: 6.7 ± 1.2 mm | MIC E. coli BL21(DE3) [4]: 1.0 µg/mL (≈ 1.81 µM) | MIC [4]: 1 to 4 µg/mL (≈ 1.81 to 7.24 µM) | MIC [5]: 0.031 µg/mL (≈ 0.0561 µM) | LasB Inhibition at 20 μM [6]: little to no inhibitory activity | inhibition at 20 µM [6]: 25.2 ± 5.6% | Ki [7]: 10.7 ± 1.2 nM

O=C(NC[C@H](OCc1ccc(C#Cc2ccc(CN3CCOCC3)cc2)cc1)C(=O)NO)c1ccc2ccccc2n1 [(S)-13e]
Inhibition zone E. coli BL21(DE3) [1]: ≤6 mm | Inhibition zone E. coli D22 [2]: 16.0 ± 2.5 mm | Inhibition zone K. pneumoniae ATCC 700603 [3]: <6 mm | MIC [4]: > 16 µg/mL | MIC [5]: 0.25 µg/mL (≈ 0.443 µM) | LasB Inhibition at 20 μM [6]: little to no inhibitory activity | inhibition at 20 µM [6]: 11.6 ± 1.9% | Ki [7]: 377 ± 83 nM
